Reference: patent US8163960B2, “Process for preparing and drying solid rasagiline base” (Teva Pharmaceutical Industries, Ltd., priority 2008, dated 2012)
Where a name gives a salt, the structure may show the parent alone. Read-outs that look alike come from different tables or passages of the source.

Key:
physchem = conditions: 25 °C
[1] = Stability test for wet Rasagiline Tartrate Pure; assay type: physicochemical; conditions: for L.O.D.: samples dried prior to analysis; for Description: wet with isopropanol and water; for Description / Chromatographic purity by HPLC: 1-Aminoindan / Chromatographic purity by HPLC: Any other / ID by HPLC / S-isomer by HPLC: RT, polyethylene bag; for Chromatographic purity by HPLC: 1-Aminoindan / Chromatographic purity by HPLC: Any other / ID by HPLC / S-isomer by HPLC: wet
Description: Rasagiline Tartrate Pure wet with isopropanol and water was stored at ambient temperature (RT) in polyethylene bag. The solid was sampled, dried to constant weight and analyzed.

[2] = oil
Experimental: Approximately four (4) grams of rasagiline base was introduced into the sublimation reservoir of a standard Sigma-Aldrich glass sublimation apparatus, (Cat. No. Z221171-1EA) with internal diameter of 3 cm. The apparatus was equipped with vacuum pump, vacuumeter and circulating ice-water bath for cooling of the apparatus' sublimation head. The apparatus was then closed and circulation of coolant at 0 to 1° C. was started. The vacuum was then built to a pressure (“P”) of 2-3 mbar and the reservoir was introduced into thermostatic water bath maintained at temperature (“T”) of 21° C.
The process was controlled by visual observation of the sublimed solid forming on the sublimation head. After sublimation completed the operation time was recorded, the apparatus was opened and the sublimed solid was removed from the head and weighed.
The mean sublimation rate was calculated as follows:
Mean Sublimation Rate Rs1: Rs1=m/M·t [gg^−1hr^−1]
Mean Sublimation Rate Rs2: Rs2=m/S·t [gm^−2hr^−1]
Mean Relative Sublimation Rate R: R=m·100/M·t [%/hr] m—mass of sublimed material, g M—mass of starting material, g t=sublimation time, hrs S=sublimation area (apparatus section area), m^2

[3] = Stability test for dried Rasagiline Tartrate Pure; assay type: physicochemical; conditions: for Chromatographic purity by HPLC: 1-Aminoindan / Chromatographic purity by HPLC: Any other / Description / ID by HPLC / L.O.D. / S-isomer by HPLC: RT, polyethylene bag
[4] = Ex. 22, 20 mbar, 35 °C, 5.33 hr
[5] = Ex. 23, 2-3 mbar, 22 °C, 3.0 hr
[6] = Ex. 24, 2-3 mbar, 60 °C, 1.3 hr

Work on `C#CCN[C@@H]1CCc2ccccc21` [rasagiline mesylate] yielded a solubility (physchem; pH 3.3, water) of 570 mg/mL and a solubility (physchem; pH 6.7, water) of 92 mg/mL.
For `C#CCN[C@@H]1CCc2ccccc21.C#CCN[C@@H]1CCc2ccccc21.O=C(O)C(O)C(O)C(=O)O` [Wet RB-2087], the Time limitation ([1]; Storage temperature R.T.) was “One month”, the L.O.D. ([1]; 2 weeks) was 0.05% and the L.O.D. ([1]; 4 weeks) was 0.04%. For the same molecule, the L.O.D. ([1]; Start (t = 0)) was 0.01%, the Description ([1]; 2 weeks) was “White” and the Description ([1]; 4 weeks) was “White”. For the same molecule, the Description ([1]; Start (t = 0)) was “White”, the “Chromatographic purity by HPLC: 1-Aminoindan” value ([1]; 2 weeks) was “L.T. 0.03%” and the “Chromatographic purity by HPLC: Any other” value ([1]; 2 weeks) was “L.T. 0.03%”. For the same molecule, the “ID by HPLC” value ([1]; 2 weeks) was “Conforms”, the “S-isomer by HPLC” value ([1]; 2 weeks) was “L.T. 0.3%” and the “Chromatographic purity by HPLC: 1-Aminoindan” value ([1]; 4 weeks) was “L.T. 0.03%”. For the same molecule, the “Chromatographic purity by HPLC: Any other” value ([1]; 4 weeks) was “L.T. 0.03%”, the “ID by HPLC” value ([1]; 4 weeks) was “Conforms” and the “S-isomer by HPLC” value ([1]; 4 weeks) was “L.T. 0.3%”. For the same molecule, the “Chromatographic purity by HPLC: 1-Aminoindan” value ([1]; Start (t = 0)) was “L.T. 0.03%”, the “Chromatographic purity by HPLC: Any other” value ([1]; Start (t = 0)) was “L.T. 0.03%” and the “ID by HPLC” value ([1]; Start (t = 0)) was “Conforms”. The “S-isomer by HPLC” value ([1]; Start (t = 0)) was “L.T. 0.3%”.
In the case of `C#CCNC1CCc2ccccc21` (racemic) [Rac.PAI oil, N-propargyl-1-aminoindan, reference compound], the “Mean relative sublimation rate R” value ([2]; Ex. 21, 20 mbar, 22 °C, 8.0 hr) is reported as 0.0 %/hr, the “Mean sublimation rate Rs1” value ([2]; Ex. 21, 20 mbar, 22 °C, 8.0 hr) is reported as 0.0 g/g/h and the “Mean sublimation rate Rs2” value ([2]; Ex. 21, 20 mbar, 22 °C, 8.0 hr) is reported as 0.0 g/hr/m^2. For the same molecule, the Sublimed solid fraction ([2]; Ex. 21, 20 mbar, 22 °C, 8.0 hr) was 0.0%, the “Mean relative sublimation rate R” value [2, 4] was 0.0 %/hr and the “Mean sublimation rate Rs1” value [2, 4] was 0.0 g/g/h. The “Mean sublimation rate Rs2” value [2, 4] was 0.0 g/hr/m^2, the Sublimed solid fraction [2, 4] was 0.0% and the “Mean relative sublimation rate R” value [2, 5] was 0.08 %/hr. For the same molecule, the “Mean sublimation rate Rs2” value [2, 5] was 3.537 g/hr/m^2, the Sublimed solid fraction [2, 5] was 0.25% and the “−log Rs1” value [2, 5] was 3.08. The “Mean sublimation rate Rs1” value ([2]; Ex. 23, 2-3 mbar, 22 °C, 3.0 hr, listed as racemic PAI) was 0.000833 g/g/h, the “Mean relative sublimation rate R” value [2, 6] was 2.5 %/hr and the “Mean sublimation rate Rs2” value [2, 6] was 101.16 g/hr/m^2. The Sublimed solid fraction [2, 6] was 3.25%, the “−log Rs1” value [2, 6] was 1.60 and the “Mean sublimation rate Rs1” value ([2]; Ex. 24, 2-3 mbar, 60 °C, 1.3 hr, listed as racemic PAI) was 0.025 g/g/h.
For `C#CCN[C@@H]1CCc2ccccc21.C#CCN[C@@H]1CCc2ccccc21.O=C(O)C(O)C(O)C(=O)O` [Dry GA-18062], the “Chromatographic purity by HPLC: 1-Aminoindan” value ([3]; 2 weeks) was “L.T. 0.03%”, the “Chromatographic purity by HPLC: Any other” value ([3]; 2 weeks) was “L.T. 0.03%” and the Description ([3]; 2 weeks) was “White”. For the same molecule, the “ID by HPLC” value ([3]; 2 weeks) was “Conforms”, the L.O.D. ([3]; 2 weeks) was 0.16% and the “S-isomer by HPLC” value ([3]; 2 weeks) was “L.T. 0.3%”. The “Chromatographic purity by HPLC: 1-Aminoindan” value ([3]; 4 weeks) was “L.T. 0.03%”, the “Chromatographic purity by HPLC: Any other” value ([3]; 4 weeks) was “L.T. 0.03%” and the Description ([3]; 4 weeks) was “White”. For the same molecule, the “ID by HPLC” value ([3]; 4 weeks) was “Conforms”, the L.O.D. ([3]; 4 weeks) was 0.03% and the “S-isomer by HPLC” value ([3]; 4 weeks) was “L.T. 0.3%”. The “Chromatographic purity by HPLC: 1-Aminoindan” value ([3]; Start (t = 0)) was “L.T. 0.03%”, the “Chromatographic purity by HPLC: Any other” value ([3]; Start (t = 0)) was “L.T. 0.03%” and the Description ([3]; Start (t = 0)) was “White”. The “ID by HPLC” value ([3]; Start (t = 0)) was “Conforms”, the L.O.D. ([3]; Start (t = 0)) was 0.03% and the “S-isomer by HPLC” value ([3]; Start (t = 0)) was “L.T. 0.3%”. For the same molecule, the Time limitation ([3]; Storage temperature R.T.) was “One month”.
